Read-outs that look alike come from different tables or passages of the source. One block for each compound: values may come before it. In the oligonucleotide strings, read from the 5' end, every base follows the letter of its sugar. An asterisk marks phosphorothioate; unmarked linkages are phosphodiester. Other units and linkages are bracketed, terminal groups are in braces. A string of capitals states the bases alone. e = 2'-O-(2-methoxyethyl) (MOE); [5mC] = 5-methylcytosine; d = 2'-deoxy (DNA)
Assays:
LNCaP cells = experiment: Apoptosis assays: propidium iodide flow cytometry (subG1) and western blotting; assay type: cell-based, human; details: 300 nM custirsen or ScrB twice, then 1 μM Hsp90 inhibitor
Procedure: FIG. 4. Increased potency of CLU knockdown and Hsp90 inhibitor combination treatment in PCa cells. A, LNCaP cells were treated twice with 300 nM custirsen or control ScrB ASO, followed by the indicated concentration of Hsp90i-1 or Hsp90i-2 for 48 h. Cell growth was determined by crystal violet and compared with control. B, dose dependent effects and combination index (CI) values calculated by CalcuSyn software were assessed in LNCap cells treated for 48 h with custirsen alone, Hsp90i-2 alone or combined treatment at indicated concentration with constant ratio design between both drugs. […] C and D, LNCaP cells were treated twice with 300 nM custirsen or control ScrB, followed by 1 μM Hsp90i-1 or Hsp90i-2 for 48 h. […] The proportion of cells in subG1, G0-G1, S, G2-M was determined by propidium iodide staining and caspase-3 activity was determined on the cell lysates and the results are expressed in arbitrary units and corrected for protein content (D). […]
Prostate cells lines were plated in appropriate media (DMEM or RPMI) with 5% FBS and treated with Hsp90i-2-PRO or Hsp90i-1 at indicated concentration and time and cell growth was measured using the crystal violet assay as described previously (Leung et al., 2000). Detection and quantitation of apoptotic cells were done by flow-cytometry (described below) and western blotting analysis. […]

HSF-1 = experiment: HSE-luciferase assay of HSF-1 activity; assay type: cell-based, human
Procedure: FIG. 3. CLU induction following Hsp90 inhibitor treatment is cytoprotective via an increase of HSF-1 activity. A, LNCaP cells were treated with indicated concentrations of Hsp90i-1 or Hsp90i-2 for 48 h. B, LNCaP cells were transiently transfected with indicated concentrations of CLU-plasmid for 48 h. Total amount of plasmid DNA transfected was normalized to 2 μg per well by the addition of an empty vector. C (Top), LNCaP cells were transfected with 20 nM CLU siRNA or control siScr, followed of Hsp90i-1 or Hsp90i-2 treatment (1 μM) for 48 h. C (bottom), LNCaP cells were treated twice with 300 nM custirsen or control ScrB ASO. D, LNCaP and PC-3 cells were treated twice with 300 nM custirsen or control ScrB ASO, followed by 1 μM of Hsp90i-1 or Hsp90i-2 for 48 h. Cells were harvested, and HSE-luciferase activity or western blotting analyses were performed. Means of at least three independent experiments done in triplicate. ***, p<0.001; *, p<0.05; ns, not significant.
LNCaP and C4-2 cells (2.5×10^5) were plated on six-plates and transfected using lipofectin (6 μL per well; Invitrogen Life Technologies, Inc.). The total amount HSE plasmids DNA used were normalized to 1 μg per well by the addition of a control plasmid. One μM HSP90i-2 or Hsp90i-1 was added 4 h after the transfection and for 48 h. HSE-luciferase activity was measured using Dual-Luciferase Reporter Assay System (Promega) with the aid of a microplate luminometer (EG&G Berthold). All experiments were carried out in triplicate wells and repeated 3 times using different preparations of plasmids.

[1] = 60 mg/kg/day (Glaze et al., 2005); cited from earlier work
[2] = test system: castrate resistant LNCaP tumors; details: 50 mg/kg monotherapy, previous study (Lamoureux et al., 2011); cited from earlier work
Hsp70 = Hsp70 expression in CRPC LNCaP xenografts (immunohistochemistry); assay type: in vivo, mice; details: 50 mg/kg Hsp90i-2-PRO for 6 weeks
Procedure: (§1) FIG. 2. Hsp90i-2 induces HSP and CLU expression in PCa xenografts. Mice were treated for 6 weeks with 50 mg/kg Hsp90i-2-PRO (the prodrug of Hsp90i-2) or vehicle (Control). A, tumors were collected and CLU and Hsp70 were evaluated by immunohistochemical analysis. B, total proteins were extracted from the xenograft tumors and CLU expression was analyzed by western blotting. The relative levels were normalized with GAPDH and estimated in densitometric units. ***, p<0.001.
(§2) Male athymic nude mice (Harlan Sprague-Dawley, Inc.) were injected s.c. with 2×10^6 LNCaP cells (suspended in 0.1 mL Matrigel; BD Biosciences). The mice were castrated once tumors reach between 300 and 500 mm^3 or the PSA level increased above 50 ng/mL. Once tumors progressed to castrate resistance, mice were randomly assigned to vehicle, Hsp90i-2-PRO alone, Hsp90i-2-PRO+ScrB ASO or Hsp90i-2-PRO+custirsen. […] Tumor volume was measured twice weekly (length×width×depth×0.5432). Serum PSA was determined weekly by enzymatic immunoassay (Abbott IMX, Montreal, Quebec, Canada). PSA doubling time (PSAdt) and velocity were calculated by the log-slope method (PSAt=PSAinitial×emt). Data points were expressed as average tumor volume±SEM or average PSA concentration±SEM. […]

[3] = Toxicity of Hsp90 inhibitor monotherapy; assay type: in vivo; details: 50 mg/kg/day
[4] = test system: castrate resistant LNCaP tumors; experiment: Castrate resistant LNCaP xenograft model; assay type: in vivo; details: for tumor volume: Hsp90i-2-PRO 25 mg/kg oral, ASO 15 mg/kg i.p.
Procedure: FIG. 6. […] Mice were treated with 25 mg/kg Hsp90i-2-PRO and 15 mg/kg custirsen starting when serum PSA values relapsed to pre-castration levels. […] Progression-free survival was defined as time for the first tumor volume doubling.
FIG. 7. […] A, tumors were collected after 57 days and CLU, Ki67, AR, AKT and TUNEL were evaluated by immunohistochemical analysis (original magnification: ×200). B, total proteins were extracted from the xenograft tumors and CLU, AR, Akt and PSA were analyzed by western blotting. The relative levels were normalized with vinculin and estimated in densitometric units±SEM.
Male athymic nude mice (Harlan Sprague-Dawley, Inc.) were injected s.c. with 2×10^6 LNCaP cells (suspended in 0.1 mL Matrigel; BD Biosciences). The mice were castrated once tumors reach between 300 and 500 mm^3 or the PSA level increased above 50 ng/mL. Once tumors progressed to castrate resistance, mice were randomly assigned to vehicle, Hsp90i-2-PRO alone, Hsp90i-2-PRO+ScrB ASO or Hsp90i-2-PRO+custirsen. Hsp90i-2-PRO (Prodrug, 25 mg/kg; formulation in 0.5% CMC+0.5% Tween-80) is orally administered three times per week and custirsen or ScrB ASO (15 mg/kg) was injected intra-peritoneally once daily for the first week and then three times per week. Each experimental group consisted of 10 mice. Tumor volume was measured twice weekly (length×width×depth×0.5432). Serum PSA was determined weekly by enzymatic immunoassay (Abbott IMX, Montreal, Quebec, Canada). PSA doubling time (PSAdt) and velocity were calculated by the log-slope method (PSAt=PSAinitial×emt). Data points were expressed as average tumor volume±SEM or average PSA concentration±SEM.
When tumor volume reached 10% of body weight, mice were sacrificed and tumors harvested for evaluation of protein expression by western blotting analyses and immunohistochemistry. All animal procedures were performed according to the guidelines of the Canadian Council on Animal Care and appropriate institutional certification.
Immunohistochemical stains were performed on formalin-fixed and paraffin-embedded 4 μm sections of tumor samples using adequate primary antibody, and the Ventana autostainer Discover XT (Ventana Medical System) with enzyme labeled biotin streptavidin system and solvent resistant 3,3′-diaminobenyidine Map kit. All comparisons of staining intensities were made at 200× magnifications.

CLU [5] = experiment: CLU expression in CRPC LNCaP xenografts (immunohistochemistry and western blot); assay type: in vivo, mice; details: 50 mg/kg Hsp90i-2-PRO for 6 weeks
Procedure: as §1, §2

CLU [6] = details: Phase II studies (Chi et al., 2005); cited from earlier work
[7] = LNCaP cells, Hsp90 inhibitor at indicated concentrations 48 h, dose-dependent

Compound: control ScrB ASO: scrambled control oligonucleotide with 2′-O-(2-methoxy)ethyl modification, 5′-CAGCGCTGACAACAGTTTCAT-3′ (SEQ ID NO: 44) (2'-O-methoxyethyl modified, pattern not given here)
apoptotic rates (subG1 fraction) (LNCaP cells): 4.2%

HSF-1 activity (HSF-1; [7]): significantly induced
Compound: C=CCNC1=C2C[C@@H](C)C[C@H](OC)[C@H](O)[C@@H](C)/C=C(\C)[C@H](OC(N)=O)[C@@H](OC)/C=C\C=C(/C)C(=O)NC(=CC1=O)C2=O [Hsp90i-1, 17-allylamino-17-demethoxygeldanamycin]
toxicity as monotherapy [1]: hepatotoxicity

Compound: CC1(C)CC(=O)c2c(C(F)(F)F)nn(-c3ccc(C(N)=O)c(NC4CCC(OC(=O)CN)CC4)c3)c2C1 (centres unmarked) [Hsp90i-2-PRO]
LNCaP CRPC tumor progression [2]: inhibited | Hsp70 increase compared with vehicle treated tumor (Hsp70): 2.3 fold | toxicity as monotherapy [3]: body weight loss | tumor volume ([4]; 7 weeks post treatment): 2483.6 mm^3 | tumor volume ([4]; at 10 days): 646.4 mm^3 | overall survival ([4]; by day 57): all mice died or were euthanized | mean PSA level ([4]; serum, after 42 days): 527 ng/mL | tumor volume / tumor progression ([4]; sub-therapeutic dose of 25 mg/kg/day HSP90i-2-PRO): marginal, non-significant decreases | effect on serum PSA levels ([4]; sub-therapeutic dose of 25 mg/kg/day, monotherapy): no effect | CLU expression increase compared with vehicle treated tumor (CLU [5]): 4 fold

Compound: custirsen: antisense oligonucleotide reducing clusterin expression, CAGCAGCAGAGTCTTCATCAT (SEQ ID NO: 3), phosphorothioate backbone, 2′-O-methoxyethyl wings (antisense e[5mC]*eA*eG*e[5mC]*dA*dG*dC*dA*dG*dA*dG*dT*dC*dT*dT*dC*dA*eT*e[5mC]*eA*eT; listed as Homo sapiens)
inhibition of CLU in human prostate cancer tissues (CLU [6]): > 90% | HSF-1 activity (HSF-1; LNCaP cells treated twice with 300 nM custirsen vs control ScrB ASO): significantly decreased | apoptotic rates (subG1 fraction) (LNCaP cells): 17.4%

HSF-1 activity (HSF-1; [7]): significantly induced
Compound: CC1(C)CC(=O)c2c(C(F)(F)F)nn(-c3ccc(C(N)=O)c(NC4CCC(O)CC4)c3)c2C1 (centres unmarked) [Hsp90i-2, 4-(6,6-Dimethyl-4-oxo-3-trifluoromethyl-4,5,6,7-tetrahydro-indazol-1-yl)-2-(4-hydroxy-cyclohexylamino)-benzamide]

Reference: US9457045B2, “Combination of anti-clusterin oligonucleotide with Hsp90 inhibitor for the treatment of prostate cancer” (The University of British Columbia, priority 2011, dated 2016)
